Laboratory results: publication PMC6409085, “Three odorant-binding proteins are involved in the behavioral response of Sogatella furcifera to rice plant volatiles” (PeerJ, 2019)
pIC50: −log10 of the molar value. Where “and” joins values, the source holds several entries; their conditions need not be identical. Equal values may be shown once.

Legend:
Test in all cases: biochemical
Format in all cases: binding
SfurOBP11 = SfurOBP11 (Sogatella furcifera, UniProt V5T6E3)
In short: (§1)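 Fluorescence competitive binding with 1-NPN as reporter: 2.0 µM protein and 2.0 µM 1-NPN in 50 mM Tris-HCl pH 7.4, odorant added at 2–20 µM final. Excitation 337 nm, emission 390–490 nm read 2 min after addition, triplicates. Ki = IC50/(1 + [1-NPN]/K1-NPN).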

SfurOBP1 = SfurOBP1 (Sogatella furcifera, UniProt V5T8N5); conditions: for Fluorescence competitive binding assay, fluorescence intensity: OBP1, three replicate columns
In short: as §1

SfurOBP3 = SfurOBP3 (Sogatella furcifera, UniProt V5T818); conditions: for Fluorescence competitive binding assay, fluorescence intensity: OBP3, three replicate columns
In short: as §1

SfurOBP2 = SfurOBP2 (Sogatella furcifera, UniProt V5T759)
In short: as §1

SfurOBP1, sequence (V5T8N5 entry or part of it): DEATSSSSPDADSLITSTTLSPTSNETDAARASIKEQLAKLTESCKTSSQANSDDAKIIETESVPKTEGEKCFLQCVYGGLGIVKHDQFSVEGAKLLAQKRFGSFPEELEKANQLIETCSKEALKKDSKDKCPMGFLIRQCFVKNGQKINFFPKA
SfurOBP2, sequence (V5T759 entry or part of it): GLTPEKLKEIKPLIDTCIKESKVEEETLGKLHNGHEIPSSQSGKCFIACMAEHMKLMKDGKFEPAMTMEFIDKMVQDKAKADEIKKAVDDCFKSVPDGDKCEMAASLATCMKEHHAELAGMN
SfurOBP11, sequence (V5T6E3 entry or part of it): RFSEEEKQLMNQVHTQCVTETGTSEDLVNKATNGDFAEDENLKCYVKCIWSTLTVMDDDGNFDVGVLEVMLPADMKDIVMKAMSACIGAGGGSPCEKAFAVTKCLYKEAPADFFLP
SfurOBP3, sequence (V5T818 entry or part of it): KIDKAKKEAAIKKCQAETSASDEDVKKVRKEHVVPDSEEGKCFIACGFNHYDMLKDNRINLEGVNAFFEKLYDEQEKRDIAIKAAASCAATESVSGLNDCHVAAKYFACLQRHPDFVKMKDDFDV

pIC50 (SfurOBP11; SfurOBP11, protein and 1-NPN both 2.0 µM, competitor 2-20 µM, read-out: IC50): < 4.70
Fluorescence intensity, fluorescence competitive binding assay, OBP11 (SfurOBP11; ligand concentration 2, replicate 1): 24217
Fluorescence intensity, fluorescence competitive binding assay, OBP11 (SfurOBP11; ligand concentration 2, replicate 2): 24290
Fluorescence intensity, fluorescence competitive binding assay, OBP11 (SfurOBP11; ligand concentration 2, replicate 3): 24783
Fluorescence intensity, fluorescence competitive binding assay, OBP11 (SfurOBP11; ligand concentration 4, replicate 1): 24290
Fluorescence intensity, fluorescence competitive binding assay, OBP11 (SfurOBP11; ligand concentration 4, replicate 2): 24322
Fluorescence intensity, fluorescence competitive binding assay, OBP11 (SfurOBP11; ligand concentration 4, replicate 3): 23442
Fluorescence intensity, fluorescence competitive binding assay, OBP11 (SfurOBP11; ligand concentration 6, replicate 1): 24952
Fluorescence intensity, fluorescence competitive binding assay, OBP11 (SfurOBP11; ligand concentration 6, replicate 2): 22901
Fluorescence intensity, fluorescence competitive binding assay, OBP11 (SfurOBP11; ligand concentration 6, replicate 3): 24534
Fluorescence intensity, fluorescence competitive binding assay, OBP11 (SfurOBP11; ligand concentration 8, replicate 1): 24078
Fluorescence intensity, fluorescence competitive binding assay, OBP11 (SfurOBP11; ligand concentration 8, replicate 2): 21947
Fluorescence intensity, fluorescence competitive binding assay, OBP11 (SfurOBP11; ligand concentration 8, replicate 3): 24599
Fluorescence intensity, fluorescence competitive binding assay, OBP11 (SfurOBP11; ligand concentration 10, replicate 1): 22957
Fluorescence intensity, fluorescence competitive binding assay, OBP11 (SfurOBP11; ligand concentration 10, replicate 2): 24005
Fluorescence intensity, fluorescence competitive binding assay, OBP11 (SfurOBP11; ligand concentration 10, replicate 3): 23087
Fluorescence intensity, fluorescence competitive binding assay, OBP11 (SfurOBP11; ligand concentration 12, replicate 1): 20961
Fluorescence intensity, fluorescence competitive binding assay, OBP11 (SfurOBP11; ligand concentration 12, replicate 2): 21769
Fluorescence intensity, fluorescence competitive binding assay, OBP11 (SfurOBP11; ligand concentration 12, replicate 3): 22579
Fluorescence intensity, fluorescence competitive binding assay, OBP11 (SfurOBP11; ligand concentration 14, replicate 1): 19736
Fluorescence intensity, fluorescence competitive binding assay, OBP11 (SfurOBP11; ligand concentration 14, replicate 2): 20687
Fluorescence intensity, fluorescence competitive binding assay, OBP11 (SfurOBP11; ligand concentration 14, replicate 3): 20422
Fluorescence intensity, fluorescence competitive binding assay, OBP11 (SfurOBP11; ligand concentration 16, replicate 1): 16888
Fluorescence intensity, fluorescence competitive binding assay, OBP11 (SfurOBP11; ligand concentration 16, replicate 2): 20499
Fluorescence intensity, fluorescence competitive binding assay, OBP11 (SfurOBP11; ligand concentration 16, replicate 3): 18999
Fluorescence intensity, fluorescence competitive binding assay, OBP11 (SfurOBP11; ligand concentration 18, replicate 1): 18870
Fluorescence intensity, fluorescence competitive binding assay, OBP11 (SfurOBP11; ligand concentration 18, replicate 2): 19005
Fluorescence intensity, fluorescence competitive binding assay, OBP11 (SfurOBP11; ligand concentration 18, replicate 3): 19199
Fluorescence intensity, fluorescence competitive binding assay, OBP11 (SfurOBP11; ligand concentration 20, replicate 1): 20952
Fluorescence intensity, fluorescence competitive binding assay, OBP11 (SfurOBP11; ligand concentration 20, replicate 2): 19127
Fluorescence intensity, fluorescence competitive binding assay, OBP11 (SfurOBP11; ligand concentration 20, replicate 3): 18042
Fluorescence competitive binding assay, fluorescence intensity (SfurOBP1; ligand concentration 2 (μM)): 7624 and 6465 and 8545
Fluorescence competitive binding assay, fluorescence intensity (SfurOBP1; ligand concentration 4 (μM)): 7313 and 7318 and 7353
Fluorescence competitive binding assay, fluorescence intensity (SfurOBP1; ligand concentration 6 (μM)): 7143 and 7275 and 7922
Fluorescence competitive binding assay, fluorescence intensity (SfurOBP1; ligand concentration 8 (μM)): 7358 and 7784 and 8873
Fluorescence competitive binding assay, fluorescence intensity (SfurOBP1; ligand concentration 10 (μM)): 7141 and 7560 and 7926
Fluorescence competitive binding assay, fluorescence intensity (SfurOBP1; ligand concentration 12 (μM)): 7810 and 7463 and 8566
Fluorescence competitive binding assay, fluorescence intensity (SfurOBP1; ligand concentration 14 (μM)): 7736 and 8413 and 7236
Fluorescence competitive binding assay, fluorescence intensity (SfurOBP1; ligand concentration 16 (μM)): 8777 and 6935 and 7055
Fluorescence competitive binding assay, fluorescence intensity (SfurOBP1; ligand concentration 18 (μM)): 9193 and 9578 and 9152
Fluorescence competitive binding assay, fluorescence intensity (SfurOBP1; ligand concentration 20 (μM)): 11048 and 9816 and 8594
pIC50 (SfurOBP1; SfurOBP1, protein and 1-NPN both 2.0 µM, competitor 2-20 µM, read-out: IC50): < 4.70
Fluorescence competitive binding assay, fluorescence intensity (SfurOBP3; ligand concentration 2): 67563 and 64113 and 67485
Fluorescence competitive binding assay, fluorescence intensity (SfurOBP3; ligand concentration 4): 70812 and 72838 and 74184
Fluorescence competitive binding assay, fluorescence intensity (SfurOBP3; ligand concentration 6): 65634 and 64114 and 68940
Fluorescence competitive binding assay, fluorescence intensity (SfurOBP3; ligand concentration 8): 62878 and 67093 and 68072
Fluorescence competitive binding assay, fluorescence intensity (SfurOBP3; ligand concentration 10): 60134 and 69541 and 65795
Fluorescence competitive binding assay, fluorescence intensity (SfurOBP3; ligand concentration 12): 68479 and 64625 and 78735
Fluorescence competitive binding assay, fluorescence intensity (SfurOBP3; ligand concentration 14): 60140 and 40039 and 67409
Fluorescence competitive binding assay, fluorescence intensity (SfurOBP3; ligand concentration 16): 38861 and 39269 and 45097
Fluorescence competitive binding assay, fluorescence intensity (SfurOBP3; ligand concentration 18): 51398 and 59369 and 52474
Fluorescence competitive binding assay, fluorescence intensity (SfurOBP3; ligand concentration 20): 68555 and 48789 and 43446
pIC50 (SfurOBP3; SfurOBP3, protein and 1-NPN both 2.0 µM, competitor 2-20 µM, read-out: IC50): < 4.70
pIC50 (SfurOBP2; SfurOBP2, protein and 1-NPN both 2.0 µM, competitor 2-20 µM, read-out: IC50): < 4.70
Fluorescence competitive binding assay, OBP2 (raw fluorescence reading) (SfurOBP2; ligand concentration 2 (unit not given), replicate column 1 of 3): 17977
Fluorescence competitive binding assay, OBP2 (raw fluorescence reading) (SfurOBP2; ligand concentration 2 (unit not given), replicate column 2 of 3): 18256
Fluorescence competitive binding assay, OBP2 (raw fluorescence reading) (SfurOBP2; ligand concentration 2 (unit not given), replicate column 3 of 3): 18222
Fluorescence competitive binding assay, OBP2 (raw fluorescence reading) (SfurOBP2; ligand concentration 4 (unit not given), replicate column 1 of 3): 21586
Fluorescence competitive binding assay, OBP2 (raw fluorescence reading) (SfurOBP2; ligand concentration 4 (unit not given), replicate column 2 of 3): 19639
Fluorescence competitive binding assay, OBP2 (raw fluorescence reading) (SfurOBP2; ligand concentration 4 (unit not given), replicate column 3 of 3): 16260
Fluorescence competitive binding assay, OBP2 (raw fluorescence reading) (SfurOBP2; ligand concentration 6 (unit not given), replicate column 1 of 3): 18208
Fluorescence competitive binding assay, OBP2 (raw fluorescence reading) (SfurOBP2; ligand concentration 6 (unit not given), replicate column 2 of 3): 18064
Fluorescence competitive binding assay, OBP2 (raw fluorescence reading) (SfurOBP2; ligand concentration 6 (unit not given), replicate column 3 of 3): 15812
Fluorescence competitive binding assay, OBP2 (raw fluorescence reading) (SfurOBP2; ligand concentration 8 (unit not given), replicate column 1 of 3): 16946
Fluorescence competitive binding assay, OBP2 (raw fluorescence reading) (SfurOBP2; ligand concentration 8 (unit not given), replicate column 2 of 3): 12445
Fluorescence competitive binding assay, OBP2 (raw fluorescence reading) (SfurOBP2; ligand concentration 8 (unit not given), replicate column 3 of 3): 14953
Fluorescence competitive binding assay, OBP2 (raw fluorescence reading) (SfurOBP2; ligand concentration 10 (unit not given), replicate column 1 of 3): 16387
Fluorescence competitive binding assay, OBP2 (raw fluorescence reading) (SfurOBP2; ligand concentration 10 (unit not given), replicate column 2 of 3): 15939
Fluorescence competitive binding assay, OBP2 (raw fluorescence reading) (SfurOBP2; ligand concentration 10 (unit not given), replicate column 3 of 3): 15218
Fluorescence competitive binding assay, OBP2 (raw fluorescence reading) (SfurOBP2; ligand concentration 12 (unit not given), replicate column 1 of 3): 16171
Fluorescence competitive binding assay, OBP2 (raw fluorescence reading) (SfurOBP2; ligand concentration 12 (unit not given), replicate column 2 of 3): 15043
Fluorescence competitive binding assay, OBP2 (raw fluorescence reading) (SfurOBP2; ligand concentration 12 (unit not given), replicate column 3 of 3): 14391
Fluorescence competitive binding assay, OBP2 (raw fluorescence reading) (SfurOBP2; ligand concentration 14 (unit not given), replicate column 1 of 3): 14286
Fluorescence competitive binding assay, OBP2 (raw fluorescence reading) (SfurOBP2; ligand concentration 14 (unit not given), replicate column 2 of 3): 13952
Fluorescence competitive binding assay, OBP2 (raw fluorescence reading) (SfurOBP2; ligand concentration 14 (unit not given), replicate column 3 of 3): 14683
Fluorescence competitive binding assay, OBP2 (raw fluorescence reading) (SfurOBP2; ligand concentration 16 (unit not given), replicate column 1 of 3): 13014
Fluorescence competitive binding assay, OBP2 (raw fluorescence reading) (SfurOBP2; ligand concentration 16 (unit not given), replicate column 2 of 3): 12749
Fluorescence competitive binding assay, OBP2 (raw fluorescence reading) (SfurOBP2; ligand concentration 16 (unit not given), replicate column 3 of 3): 13096
Fluorescence competitive binding assay, OBP2 (raw fluorescence reading) (SfurOBP2; ligand concentration 18 (unit not given), replicate column 1 of 3): 12746
Fluorescence competitive binding assay, OBP2 (raw fluorescence reading) (SfurOBP2; ligand concentration 18 (unit not given), replicate column 2 of 3): 12759
Fluorescence competitive binding assay, OBP2 (raw fluorescence reading) (SfurOBP2; ligand concentration 18 (unit not given), replicate column 3 of 3): 12788
Fluorescence competitive binding assay, OBP2 (raw fluorescence reading) (SfurOBP2; ligand concentration 20 (unit not given), replicate column 1 of 3): 13087
Fluorescence competitive binding assay, OBP2 (raw fluorescence reading) (SfurOBP2; ligand concentration 20 (unit not given), replicate column 2 of 3): 12766
Fluorescence competitive binding assay, OBP2 (raw fluorescence reading) (SfurOBP2; ligand concentration 20 (unit not given), replicate column 3 of 3): 13106
SMILES: CCCCCCCCCCCCO [lauryl alcohol]
